Here are results for 14 compounds from patent US7923465B2, “Cannabinoid receptor ligands, pharmaceutical compositions containing them, and process for their preparation” (priority 2005, dated 2011).

Where two headings read alike, the source gives them in different places.

Data set [1] deals with T1, CB1 (Rattus norvegicus, UniProt P20272). The data set is described as follows: GTPγS binding assay, CB1 functional assay in rat cerebellar membrane (Protocol VIII). It counts as biochemical. The note with it: for activation at 1 µM / activation at 0.3 µM: 1 h, read-out: Per Se % Stimulation; for inhibition at 1 µM / inhibition at 0.3 µM: read-out: % Inhibition of WIN-55212-2 induced stimulation; for activation at 0.3 µM: tested at 300 nM; for inhibition at 0.3 µM: tested at 300 nM in presence of 1 μM WIN 55,212-2. Also noted: 10 μg rat cerebellum membrane; from tissue; host or cells: rat cerebellum membrane, prepared in-house. Here is the method:
VIII. Protocol for GTPγS Binding Assay (CB1 Functional Assay in Rat Cerebellar Membrane)
In this GTPγS binding assay, total, basal and nonspecific binding were determined. See Griffin G., Atkinson P. J., Showalter V. M., Martin B. R. and Abood M. E., “Evaluation of cannabinoid receptor agonists and antagonists using the Guanosine-5′-O-(3-(^35S)thio)-triphosphate binding assay in rat cerebellar membranes,” J Pharmacol Exp Ther 285: 553-560, 1998. Three wells for total binding, three wells for basal binding, and three wells for nonspecific binding at 0.2 nM concentration of radioligand were used. Basal binding was defined by 50 μM GDP (Guanosine diphosphate) and non-specific binding was defined by 10 μM unlabeled GTPγS. 10 μg rat cerebellum membrane, 50 μM of GDP, WIN-55212-2 or test compound (1 μM or 300 nM), 10 μM unlabeled GTPγs, and 0.2 nM of [^35S]GTPγS were added into a 96 well plate and the final volume of the reaction mixture was made with GTPγS buffer (50 mM Tris, 3 mM anhydrous MgCl2, 0.2 mM EGTA and 100 mM NaCl pH 7.4) to 200 μl. The plates were incubated at 30° C. for 1 hour. Then the reaction was stopped by filtration using a Whatman GF/B-96 microfilter plate. Three washings were given using Tris-HCl. The radioactivity bound to the brain membrane was retained on the filter disks to which scintillation fluid was added (Microscint PS). Then plates were read for radioactive counts using a Beta Liquid Scintillation Counter (Packard Instruments, Ill., USA).
The rat cerebellar brain membrane was prepared as follow: • 1. Sacrifice the rat and take out the whole brain and separate cerebellum as fast as possible and keep it on ice. • 2. Take the weight of the cerebellum and homogenize in 30 ml of homogenizing buffer (50 mM Tris-HCL containing 1 mM EDTA and 5% sucrose, pH 7.5) using homogenizer in cold condition. • 3. Centrifuge the homogenized cerebellum at 18000 rpm (38000 g) for 15 min at 4° C. • 4. Resuspend the pellet in 5 ml 50 mM Tris-HCL containing 1 mM EDTA and keep it on ice for 30 min. • 5. Pass the membrane through insulin syringe to ensure uniform suspension. • 6. Centrifuge the membrane at 18000 rpm at 4° C. for 20 min. • 7. Reconstitute the pellet in 3 ml of GTPγS buffer and estimate the protein by BCA assay and store the membrane in aliquots of 1000 μg of protein. CB1 Agonist and Antagonist Activity Screening Assay
The test compounds were screened at a final concentration of 1 μM or 300 nM in the absence and presence of 1 μM of WIN 55, 212-2 in the same manner as described in the GTPγS binding assay.
An agonist will stimulate the GTPγS binding over the basal.
An inverse agonist will decrease the basal GTPγS binding and/or produce more than 100% inhibition of the agonist (WIN-55212-2) induced stimulation.
The percent stimulation of GTPγS binding by each test compound at 1 μM or 300 nM concentration in the absence and presence of 1 μM WIN 55, 212-2 was calculated by comparing it with basal specific bound (Basal binding—Non Specific binding) values.

Data set [2] concerns the target T1, CB1. Put plainly: Rat CB1 receptor binding using brain membrane, [3H]SR141716A displacement (Protocol I). Also noted: CB1 receptor present in a rat brain membrane preparation; from tissue; host or cells: rat brain membrane; inhibition: dose or concentration left out as unconfirmed. The note with it: for inhibition: 1 h.
For data set [3], the target named is hCB2 (Homo sapiens, UniProt P34972). The data set is described as follows: In vitro binding assay using hCB2-CHO membranes, [3H]-CP-55,940 displacement (Protocol IV). Also noted: expressed in transfected cells; host or cells: CHO (hCB2-CHO, generated in-house). To be noted: hCB2-CHO membranes, [3H]-CP-55,940 displacement. Summed up:
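Compounds were tested at a single 300 nM final concentration for displacing 0.75 nM [3H]-CP-55,940 from hCB2-CHO membranes (1 h, 30 °C, 50 mM Tris pH 7.4, 5 mM MgCl2, 1 mM EDTA, 0.1% BSA). Filter-bound radioactivity was counted, with 0.5 μM unlabelled CP-55,940 for nonspecific binding; results are % displacement.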

[4] abbreviates: GTPγS binding over basal, rat cerebellar membrane, tested at 1 uM.
Setting [5] is: GTPγS binding, tested at 1 uM in presence of 1 μM WIN 55,212-2.
Where [6] appears, read: rat brain membrane, [3H]SR141716A displacement, read-out: % Displacement Protocol I.
Setting [7] is: GTPγS binding over basal, rat cerebellar membrane.
Where [8] appears, read: read-out: % Displacement Protocol I, rat brain membrane, [3H]SR141716A displacement.

T1 sequence (P20272 whole entry): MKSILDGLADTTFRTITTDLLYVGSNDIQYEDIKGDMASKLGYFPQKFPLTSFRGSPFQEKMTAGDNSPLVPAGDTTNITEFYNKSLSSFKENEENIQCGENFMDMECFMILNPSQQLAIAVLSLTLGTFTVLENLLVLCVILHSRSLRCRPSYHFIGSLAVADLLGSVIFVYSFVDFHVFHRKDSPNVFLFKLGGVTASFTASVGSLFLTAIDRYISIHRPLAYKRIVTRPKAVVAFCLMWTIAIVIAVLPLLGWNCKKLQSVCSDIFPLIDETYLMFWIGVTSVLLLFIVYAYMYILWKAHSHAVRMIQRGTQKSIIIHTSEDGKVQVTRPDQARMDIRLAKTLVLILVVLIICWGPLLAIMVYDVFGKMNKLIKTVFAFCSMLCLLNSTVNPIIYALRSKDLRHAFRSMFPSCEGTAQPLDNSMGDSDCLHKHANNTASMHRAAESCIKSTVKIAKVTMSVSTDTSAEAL
Sequence of hCB2 (P34972 whole entry): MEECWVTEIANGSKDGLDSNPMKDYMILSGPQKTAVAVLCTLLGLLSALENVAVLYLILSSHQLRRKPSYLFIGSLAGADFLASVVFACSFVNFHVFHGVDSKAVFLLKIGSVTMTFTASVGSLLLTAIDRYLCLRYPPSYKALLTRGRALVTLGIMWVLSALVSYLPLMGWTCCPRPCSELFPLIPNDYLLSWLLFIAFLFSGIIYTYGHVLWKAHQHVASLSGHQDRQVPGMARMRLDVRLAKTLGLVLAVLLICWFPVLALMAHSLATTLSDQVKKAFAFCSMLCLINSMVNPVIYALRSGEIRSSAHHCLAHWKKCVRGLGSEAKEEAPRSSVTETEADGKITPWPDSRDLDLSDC

Broadly, the melting point is the temperature of the solid-liquid transition. Compound `O=C(NN1CCCCC1)c1nn(-c2ccc(F)cc2F)c2c1C1CC3CC(C1)CC2C3` [Example 143, N(7)-Piperidino-5-(2,4-difluorophenyl)-5,6-diazatetracyclo[7.3.1.1^3,11.0^4,8]tetradeca-4(8),6-diene-7-carboxamide] showed a melting point of 215 °C. In data set [1] (setting [4]), the activation at 1 µM came out at 43.1%. Moreover, the inhibition at 1 µM in data set [1] (setting [5]) was determined as 45%. For the same compound, in data set [2] (setting [6]), the inhibition was 102%.

The compound `CC12CCC(C1)C(C)(C)C2NC(=O)c1nn(-c2ccc(Cl)cc2Cl)c2c1C1CCC2C1` (centres unmarked) [Example 241, N(3)-(1,3,3-Trimethylbicyclo[2.2.1]hept-2-yl)-1-(2,4-dichlorophenyl)-4,5,6,7-tetrahydro-1H-4,7-methano-indazole-3-carboxamide] yielded a melting point of 156 to 159 °C. Further, the activation at 0.3 µM in data set [1] (setting [7]) was 54.7%. The inhibition at 0.3 µM in data set [1] (GTPγS binding) turned out to be 32.9%. Also, the inhibition in data set [2] (setting [8]) worked out at 92.5%.

As to `O=C(NN1CCCCC1)c1nn(-c2ccc(Cl)cc2Cl)c2c1C1CCC2c2ccccc21` (centres unmarked) [Example 502, N(12)-Piperidino-10-(2,4-dichlorophenyl)-10,11-diazatetracyclo[6.5.2.0^2,7.0^9,13]pentadeca-2,4,6,9(13),11-pentaene-12-carboxamide], the melting point lay in the range of 164 to 166 °C. For the same compound, the activation at 1 µM in data set [1] (setting [4]) was determined as 1.8%. In addition, the inhibition at 1 µM in data set [1] (setting [5]) is 91.1%. The inhibition in data set [2] (setting [6]) is 81.3%.

As to `O=C(NNc1ccccc1)c1nn(-c2ccc(Cl)cc2Cl)c2c1C1CC3CC(C1)CC2C3` [Example 173, N(7)-Phenylamino-5-(2,4-dichlorophenyl)-5,6-diazatetracyclo[7.3.1.1^3,11.0^4,8]tetradeca-4(8),6-diene-7-carboxamide], the melting point was 162 to 163 °C. In data set [1] (setting [4]), the activation at 1 µM was 1.3%. Further, the inhibition at 1 µM in data set [1] (setting [5]) worked out at 99.5%. In addition, in data set [2] (setting [6]), the inhibition is 67.1%.

`CN(NC(=O)c1nn(-c2ccc(Cl)cc2)c2c1C1CC3CC(C1)CC2C3)C1CCCCC1` [Example 107, N(7)-(N-cyclohexyl-N-methylamino)-5-(4-chlorophenyl)-5,6-diazatetracyclo[7.3.1.1^3,11.0^4,8]tetradeca-4(8),6-diene-7-carboxamide]: the melting point amounted to 219 °C. In addition, the activation at 1 µM in data set [1] (setting [4]) was 4%. Also, the inhibition at 1 µM in data set [1] (setting [5]) was found to be 71.5%. Further, the inhibition in data set [2] (setting [6]) came out at 97.4%.

With `O=C(NN(c1ccccc1)c1ccccc1)c1nn(-c2ccc(Cl)cc2Cl)c2c1C1CC3CC(C1)CC2C3` [Example 177, N(7)-(N′,N′-Diphenylimino)-5-(2,4-dichlorophenyl)-5,6-diazatetracyclo[7.3.1.1^3,11.0^4,8]tetradeca-4(8),6-diene-7-carboxamide], the “% Displacement Protocol IV” value in data set [3] is recorded as 15.26%. The “Per Se % Stimulation” value in data set [1] (setting [4]) is on record as 9.7%. Moreover, in data set [1] (setting [5]), the “% Inhibition of WIN-55212-2 induced stimulation” value worked out at 109.1%. In addition, the “% Displacement Protocol I” value in data set [2] (rat brain membrane, [3H]SR141716A displacement) came out at 75.6%.

In turn, `O=C(NCc1ccccc1Cl)c1nn(-c2ccc(Cl)cc2)c2c1C1CC3CC(C1)CC2C3` [Example 111, N(7)-(2-Chlorobenzyl)-5-(4-chlorophenyl)-5,6-diazatetracyclo[7.3.1.1^3,11.0^4,8]tetradeca-4(8),6-diene-7-carboxamide] returned a melting point of 162 to 164 °C. The activation at 1 µM in data set [1] (setting [4]) came out at 6.1%. Further, in data set [1] (setting [5]), the inhibition at 1 µM worked out at 101%. The inhibition in data set [2] (setting [6]) stood at 111%.

Regarding `O=C(NNc1ccccc1)c1nn(-c2ccc(Cl)cc2Cl)c2c1C1CCC2C1` (centres unmarked) [Example 256, N(3)-Phenylamino-1-(2,4-dichlorophenyl)-4,5,6,7-tetrahydro-1H-4,7-methano-indazole-3-carboxamide], the melting point is 182 to 185 °C. Further, the activation at 1 µM in data set [1] (setting [4]) was -21.5%. The inhibition at 1 µM in data set [1] (setting [5]) is 69.7%. For the same compound, the inhibition in data set [2] (setting [6]) amounted to 63.3%.

Consider `O=C(NC1CCCCC1)c1nn(-c2ccc(F)cc2F)c2c1C1CCC2C1` (centres unmarked) [Example 290, N(3)-Cyclohexyl-1-(2,4-difluorophenyl)-4,5,6,7-tetrahydro-1H-4,7-methano-indazole-3-carboxamide], for which the melting point was found to be 119 °C. In addition, the activation at 1 µM in data set [1] (setting [4]) amounted to 3.8%. Besides, in data set [1] (setting [5]), the inhibition at 1 µM was 35.3%. Besides, in data set [2] (setting [8]), the inhibition stood at 80.3%.

In turn, `O=C(NCc1ccccc1Br)c1nn(-c2ccc(Cl)cc2)c2c1C1CCC2C1` (centres unmarked) [Example 224, N(3)-(2-Bromobenzyl)-1-(4-chlorophenyl)-4,5,6,7-tetrahydro-1H-4,7-methano-indazole-3-carboxamide] displayed a melting point of 141 to 142 °C. The activation at 1 µM in data set [1] (setting [4]) came out at 5%. In data set [1] (setting [5]), the inhibition at 1 µM was 78.1%. The inhibition in data set [2] (setting [8]) was found to be 81.6%.

For the compound `O=C(NN(c1ccccc1)c1ccccc1)c1nn(-c2ccc(Cl)cc2)c2c1C1CC3CC(C1)CC2C3` [Example 137, N(7)-(N′,N′-Diphenylamino)-5-(4-chlorophenyl)-5,6-diazatetracyclo[7.3.1.1^3,11.0^4,8]tetradeca-4(8),6-diene-7-carboxamide], the melting point came to 214 °C. Besides, the activation at 1 µM in data set [1] (setting [4]) is 13%. In addition, the inhibition at 1 µM in data set [1] (setting [5]) turned out to be 76%. Also, the inhibition in data set [2] (setting [8]) turned out to be 76.7%.

The compound `O=C(NNc1ncccc1Cl)c1nn(-c2ccc(Cl)cc2Cl)c2c1C1CCC2C1` (centres unmarked) [Example 267, N(3)-[(3-chloropyridin-2-yl)amino]-1-(2,4-dichlorophenyl)-4,5,6,7-tetrahydro-1H-4,7-methano-indazole-3-carboxamide] came in with a melting point of 95 °C. Further, the activation at 0.3 µM in data set [1] (setting [7]) worked out at 12.3%. Further, the inhibition at 0.3 µM in data set [1] (GTPγS binding) was 43.6%. For the same compound, the inhibition in data set [2] (setting [6]) came to 90%.

The compound `C[C@@H](NC(=O)c1nn(-c2ccc(Cl)cc2Cl)c2c1C1CCC2C1)c1ccccc1` (stereo partly drawn) [Example 253, N(3)-[R-(1-phenylethyl)]-1-(2,4-dichlorophenyl)-4,5,6,7-tetrahydro-1H-4,7-methano-indazole-3-carboxamide] registered a melting point of 89 to 92 °C. The activation at 0.3 µM in data set [1] (setting [7]) is -9.3%. The inhibition at 0.3 µM in data set [1] (GTPγS binding) is 79.9%. In addition, in data set [2] (setting [6]), the inhibition was found to be 63%.

`O=C(NCc1ccccc1)c1nn(-c2ccc(Cl)cc2Cl)c2c1C1CCC2c2ccccc21` (centres unmarked) [Example 501, N(12)-Benzyl-10-(2,4-dichlorophenyl)-10,11-diazatetracyclo[6.5.2.0^2,7.0^9,13]pentadeca-2,4,6,9(13),11-pentaene-12-carboxamide] displayed a melting point of 164 to 166 °C. Also, in data set [1] (setting [4]), the activation at 1 µM is 53.7%. In data set [1] (setting [5]), the inhibition at 1 µM worked out at 40.1%. For the same compound, the inhibition in data set [2] (setting [6]) amounted to 82.5%.
